Measurements from paper PMC9785812 (Pharmaceutics, 2022).
Where “and” joins values, the source holds several entries; their conditions need not be identical. Identical values can stand only once.

What was measured:
[1] = Ex vivo biodistribution in healthy BALB/c mice; set-up: species or system mouse
Method: Quantification of activity was performed with an automated gamma counter equipped with a 3-in NaI(Tl) detector coupled to a multichannel analyzer (2480 Wizard^2, Perkin Elmer, Zaventem, Belgium). The results were corrected for background signal, physical decay during counting and detector dead time.
All animal experiments were performed in compliance with the Ethical Committee Animal Studies of Medanex Clinic (EC MxCl 2020-163 and EC MxCl 2021-173), the Belgian laboratory animal legislation and the European Communities Council Directive of 22 September 2010 (2010/63/EU). Male BALB/c and NMRI nude mice were purchased from Janvier (Bio Services, Uden, The Netherlands) and housed in ventilated cages under standard laboratory conditions (12 h light/dark cycle) at the animal facility of SCK CEN. All animals had access to food and water ad libitum.
Additionally, similar biodistribution studies were performed with free (unlabeled) [^153Sm]SmCl3 to identify the organs with ^153Sm accumulation in case of release from the complex. […] The mice were sacrificed by an overdose pentobarbital (200 µL of 60 mg/mL) 1, 4, 24 and 72 h post-injection (p.i.) (n = 3–4 per time point). Blood was collected via cardiac puncture. Organs of interest were collected in tared tubes and weighed. The activity in the different organs was measured in the gamma counter. For the calculation of the total activity in the blood, bone and muscle, the masses were assumed to be, respectively, 7, 12 and 40% of the total body mass. Data were expressed as a percentage of injected activity (%IA) and standardized uptake value (SUV). %IA was calculated as (counts per min (cpm) in organ)/(IA converted to cpm) × 100. SUV was calculated as (activity in cpm in organ/weight of organ in g)/(IA/total body weight in g).

SSTR2 in CA20948 cells = conditions: cited from earlier work
[2] = 1 h p.i., healthy male BALB/c mice, ~2-3 MBq i.v., mean ± SD, n = 3-4
[3] = 4 h p.i., healthy male BALB/c mice, ~2-3 MBq i.v., mean ± SD, n = 3-4
[4] = 24 h p.i., healthy male BALB/c mice, ~2-3 MBq i.v., mean ± SD, n = 3-4
[5] = 72 h p.i., healthy male BALB/c mice, ~2-3 MBq i.v., mean ± SD, n = 3-4
[6] = mouse, in vivo, iv, listed as [153Sm]SmCl3

Q: Which “Blood SUV” value [1, 2] does the source give for [153Sm+3].[Cl-].[Cl-].[Cl-] [[^153Sm]SmCl3, reference compound] here?
A: 2.0 ± 0.5

Q: And the “Heart SUV” value [1, 2]?
A: 0.7 ± 0.2

Q: And the “Lungs %IA” value [1, 2]?
A: 0.9 ± 0.2 %IA

Q: And the “Lungs SUV” value [1, 2]?
A: 1.0 ± 0.2

Q: What about the “Pancreas SUV” value [1, 2] of the same compound?
A: 0.2 ± 0.1

Q: What about the “Stomach %IA” value [1, 2] of the same compound?
A: 0.5 ± 0.2 %IA

Q: What about the “Bone %IA” value [1, 3] of the same compound?
A: 20.1 ± 6.7 %IA

Q: What about the “Heart %IA” value [1, 3] of the same compound?
A: 0.2 ± 0.0 %IA

Q: And the “Intestines %IA” value [1, 3]?
A: 1.7 ± 0.2 %IA

Q: And the “Stomach %IA” value [1, 3]?
A: 0.2 ± 0.0 %IA

Q: What about the “Blood %IA” value [1, 4] of the same compound?
A: 0.2 ± 0.0 %IA

Q: What about the “Heart SUV” value [1, 4] of the same compound?
A: 0.2 ± 0.0

Q: What about the “Intestines %IA” value [1, 4] of the same compound?
A: 1.0 ± 0.2 %IA

Q: What about the “Lungs SUV” value [1, 4] of the same compound?
A: 0.2 ± 0.0

Q: What about the “Stomach %IA” value [1, 4] of the same compound?
A: 0.2 ± 0.2 %IA

Q: And the “Lungs SUV” value [1, 5]?
A: 0.2 ± 0.0

Q: What about the “Muscle %IA” value [1, 5] of the same compound?
A: 0.9 ± 0.2 %IA

Q: And the “Stomach %IA” value [1, 5]?
A: 0.2 ± 0.1 %IA

Q: And the “Bone SUV” value ([1]; mouse, in vivo, iv)?
A: 3.1 ± 1.3

Q: What about the “Brain SUV” value ([1]; mouse, in vivo, iv) of the same compound?
A: 0.0 ± 0.0

Q: What about the “Liver SUV” value ([1]; mouse, in vivo, iv) of the same compound?
A: 7.7 ± 1.8

Q: What about the “Lungs SUV” value ([1]; mouse, in vivo, iv) of the same compound?
A: 0.4 ± 0.0

Q: What about the “Bone %IA” value [1, 6] of the same compound?
A: 12.1 ± 0.3 %IA and 17.6 ± 3.7 %IA and 21.9 ± 8.9 %IA

Q: What about the “Bone SUV” value [1, 6] of the same compound?
A: 1.7 ± 0.0 and 2.9 ± 1.0 and 2.5 ± 0.5

Q: And the “Excreted %IA” value [1, 6]?
A: 26.0 ± 8.0 %IA and 21.4 ± 3.9 %IA and 24.2 ± 4.2 %IA and 34.8 ± 11.6 %IA

Q: What about the “Intestines %IA” value [1, 6] of the same compound?
A: 2.4 ± 0.5 %IA and 1.5 ± 0.5 %IA

Q: And the “Liver %IA” value [1, 6]?
A: 35.9 ± 6.4 %IA and 54.3 ± 5.3 %IA and 53.9 ± 4.2 %IA and 42.9 ± 9.2 %IA

Q: What about the “Liver SUV” value [1, 6] of the same compound?
A: 6.9 ± 0.5 and 11.2 ± 1.3 and 10.5 ± 0.8

Q: Which “affinity towards SSTR2” value (SSTR2 in CA20948 cells) does the source give for O=C([O-])CN(CCN(CC(=O)[O-])CC(=O)[O-])CCN(CC(=O)[O-])CC(=O)[O-].[177Lu+3] [[^177Lu]Lu-DTPA] here?
A: complete lack of affinity
